Results taken from US6713517B1, “Use of aryl N-substituted carboxamides directly and as radio-and chemosensitizers for killing tumor and cancer cells and novel compounds for such use” (OXiGENE, Inc., priority 1996, dated 2004).
“Also recorded” adds a separate entry of the source.

Experiments:
[1] = tested on: human lymphocytes (purified mononuclear leukocytes); assay type: cell-based; conditions: for radiosensitization of cytotoxicity by apoptosis: 1 Gy radiation plus drug (100 μM MCA or 1000 μM others), FIG. 6B; for induction of / effect on apoptotic cytotoxicity: drug alone (FIG. 6A) or with 1 Gy radiation (FIG. 6B)
Experimental: Evaluation of radiosensitization by apoptotic cytotoxicity. […] The cells were first exposed to the drugs for 30 minutes at 37° C. before being given 1 Gy irradiation (^137cesium source, Scanditronix, 1.56 Gy/min). The apoptotic and necrotic cells were analyzed and scored by phase contrast morphological criteria. Apoptotic cells have condensed chromatin and are trypan blue negative whereas necrotic cells stain blue with trypan blue.

[2] = Solubility in water of the hydrochloride salt; assay type: physicochemical; conditions: amorphous hydrochloride salt
Experimental: Preparation of the hydrochloride salt of N-(2-diethylamino-ethyl)nicotinamide. The free base [compound (3)] was dissolved in n-propanol+n-butanol+0.1 M HClaq (2:1:1, v/v/v). An aliquate of 2 M aqueous […] was added to adjust the pH to 2. The solution was concentrated and the resulting amorphous material was dried under vacuum overnight.

SMILES | radiosensitization of cytotoxicity by apoptosis [1] | induction of / effect on apoptotic cytotoxicity [1] | solubility in water [2]
CCN(CC)CCNC(=O)c1cc(Cl)c(N)cc1OC [metoclopramide, 4-amino-5-chloro-N-(2-diethylamino-ethyl)-2-methoxybenzamide] | having the properties to sensitize apoptotic cell killing by radiation; also recorded: effective | capable of inducing apoptotic cytotoxicity | –
NC(=O)c1cccnc1 [nicotinamide] | not and does not sensitize cytotoxicity by apoptosis | not able to affect cytotoxicity by apoptosis | –
CCN(CC)CCNC(=O)c1cccnc1.Cl [N-(2-diethylaminoethyl) nicotinamide HCl] | – | – | readily soluble in water
